Source: the NIST ThermoML archive (doi:10.1016/j.jct.2004.08.004)
Values joined by “and” are separate entries in the source; they are usually repeats but may differ in a detail not shown here. Identical values can stand only once.

Details: Liquid, Transpiration method

CCCCCCCCCCCCCC#N [tetradecanenitrile]
Details | vapor or sublimation pressure [kPa]
327.2 K | 0.00109
330.2 K | 0.00139
333.2 K | 0.00183
336.2 K | 0.00236
339.2 K | 0.00306
342.1 K | 0.00383
345.2 K | 0.00491
348.1 K | 0.00628
351.2 K | 0.00777
354.2 K | 0.00982
357.2 K | 0.01221
360.2 K | 0.01474
363.2 K | 0.01847
366.2 K | 0.02305
369.2 K | 0.02799

CCCCCCCCCCCCCCCC#N [hexadecanenitrile]
Details | vapor or sublimation pressure [kPa]
345.1 K | 0.00096
348.1 K | 0.00128
351.2 K | 0.00165
354.2 K | 0.00212
357.2 K | 0.00262
360.2 K | 0.00342
363.2 K | 0.00434
366.2 K | 0.00532
369.2 K | 0.00658
372.1 K | 0.00826
376.2 K | 0.0112
379.2 K | 0.0136
382.2 K | 0.01642

CCCCCCCCC#N [nonanenitrile]
Details | vapor or sublimation pressure
285.2 K | 0.0039 kPa
286.2 K | 0.00449 kPa
288.2 K | 0.00519 kPa
290.2 K | 0.0064 kPa
291.7 K | 0.00714 kPa
293.2 K | 0.00797 kPa
295.2 K | 0.00992 kPa
296.2 K | 0.01052 kPa
298.2 K | 0.0124 kPa
299.2 K | 0.0135 kPa
301.2 K | 0.01585 kPa
302.2 K | 0.01722 kPa
304.2 K | 0.0198 kPa
305.2 K | 0.02231 kPa
307.2 K | 0.02482 kPa
308.2 K | 0.02855 kPa
310.2 K | 0.03154 kPa
311.2 K | 0.03619 kPa
313.2 K | 0.04037 kPa
316.2 K | 0.05039 kPa and 0.05346 kPa
319.2 K | 0.06245 kPa
320.2 K | 0.06797 kPa
323.2 K | 0.08366 kPa

CCCCCCCCCCC#N [1-decylcyanide]
Details | vapor or sublimation pressure [kPa]
290.3 K | 0.00062
298.2 K | 0.00131
305.2 K | 0.00255
307.2 K | 0.00308
309.2 K | 0.00374
310.2 K | 0.00402
313.2 K | 0.0051
314.2 K | 0.00577
319.1 K | 0.00834
319.2 K | 0.00877
322.1 K | 0.01069
322.2 K | 0.0113
325.2 K | 0.0144
325.3 K | 0.01379
327.2 K | 0.01646
328.2 K | 0.01792
331.3 K | 0.02254
332.2 K | 0.02447
334.2 K | 0.02763
337.2 K | 0.03454
337.3 K | 0.03505
340.3 K | 0.04264

CCCCCCCC#N [octanenitrile]
Details | vapor or sublimation pressure
283.2 K | 0.01192 kPa
286.2 K | 0.0152 kPa
289.2 K | 0.01964 kPa
292.2 K | 0.02498 kPa
295.2 K | 0.03092 kPa
298.2 K | 0.03898 kPa
301.2 K | 0.04949 kPa and 0.04849 kPa
304.2 K | 0.06148 kPa
307.1 K | 0.07561 kPa
310.2 K | 0.09243 kPa and 0.09473 kPa

CCCCCCC#N [heptanenitrile]
Details | vapor or sublimation pressure [kPa]
280.2 K | 0.02893
283.2 K | 0.03746
286.2 K | 0.04773
289.2 K | 0.05977
292.2 K | 0.07501
295.2 K | 0.09393
298.2 K | 0.1138
301.2 K | 0.1417
304.2 K | 0.1723
307.2 K | 0.2092

CCCCCCCCCC#N [1-decanenitrile]
Details | vapor or sublimation pressure [kPa]
295.2 K | 0.00359
298.3 K | 0.00484
302.2 K | 0.00692
305.6 K | 0.00928
308.7 K | 0.01188
311.7 K | 0.01511
313.1 K | 0.01667
315.2 K | 0.01966
316.2 K | 0.02172
319.2 K | 0.02728
322.2 K | 0.03317
326.3 K | 0.04574

CCCCCCCCCCCCC#N [dodecanecarbonitrile]
Details | vapor or sublimation pressure [kPa]
301.2 K | 0.00024
313.3 K | 0.00075
318.1 K | 0.0012
324.1 K | 0.00205
327.2 K | 0.0028
330.2 K | 0.00364
333.1 K | 0.00466
336.2 K | 0.00594
339.2 K | 0.00754
342.1 K | 0.0095
345.2 K | 0.01168
348.2 K | 0.01466
351.2 K | 0.01796
354.2 K | 0.02244
357.2 K | 0.02764
360.2 K | 0.03471
363.2 K | 0.04232

CCCCCCCCCCCCCCCCC#N [heptadecanenitrile]
Details | vapor or sublimation pressure [kPa]
348.2 K | 0.00055
351.2 K | 0.00072
354.2 K | 0.00093
357.2 K | 0.00117
360.2 K | 0.00156
363.2 K | 0.00201
366.2 K | 0.00252
369.1 K | 0.00316
372.1 K | 0.00402
376.2 K | 0.00532
379.2 K | 0.00678
382.2 K | 0.00824
385.2 K | 0.01022

CCCCCCCCCCCCCCC#N [1-tetradecyl cyanide]
Details | vapor or sublimation pressure [kPa]
336.2 K | 0.00105
339.2 K | 0.00137
342.1 K | 0.00176
345.2 K | 0.00219
348.1 K | 0.00287
351.2 K | 0.00356
354.2 K | 0.00459
357.2 K | 0.00567
360.2 K | 0.00704
363.2 K | 0.00901
366.2 K | 0.01122
369.1 K | 0.0138
372.1 K | 0.017

CCCCCCCCCCCC#N [n-dodecanenitrile]
Details | vapor or sublimation pressure [kPa]
298.2 K | 0.00052
301.2 K | 0.00071
306.1 K | 0.00111
312.2 K | 0.00186
315.1 K | 0.00239
318.2 K | 0.00323
319.2 K | 0.0036
322.2 K | 0.00462
325.2 K | 0.0059
328.2 K | 0.00742
331.2 K | 0.00936
334.2 K | 0.0117
337.2 K | 0.01464
340.2 K | 0.01821
343.2 K | 0.02303
346.2 K | 0.02783
349.2 K | 0.03419
352.3 K | 0.04237
355.3 K | 0.05317
358.2 K | 0.06363
361.2 K | 0.07929
364.2 K | 0.09431
367.1 K | 0.1148
